Reference: US20120225837A1, “MEDICINAL AGENT FOR DISEASE ASSOCIATED WITH EPSTEIN-BARR VIRUS, AND METHOD FOR SCREENING OF THE MEDICINAL AGENT” (Kyoto University, priority 2007, published 2012)
Where two headings read alike, the source gives them in different places.

What was measured:
143B/EB virus-TK cells = experiment: cells; conditions: read-out: CC50 143B/EB Virus-TK
Source text: (§1) At first, a primer was designed on the basis of the data base information of NCBI, followed by extracting DNA from B95a cells (J. Virol. 1990; 64(2): 700-5), and the TK gene of an EB virus was amplified by PCR method and cloned in the multicloning site of an expression plasmid vector pCI-neo (pCI-EB-TKneo). Similarly, human-TK gene was also amplified by PCR method and cloned (pCI-huTKneo). Whether the cloned gene fragment was a desired gene or not was judged by determining the base sequence.
(§2) Then, TK-defect human osteosarcoma cells (143B) was transfected by lipofection method (Proc. Natl. Acad. Sci. USA 1987 November; 84(21): 7413-7) with the plasmid vector capable of expressing EB virus-TK gene or the plasmid vector capable of expressing human-TK gene, namely, pCI-EB-TKneo or pCI-huTKneo, and cells having each plasmid introduced therein were selected by the use of neomycin.
(§3) The drug sensitivity of 143B/EB virus-TK, 143B/hu-TK, 143B TK(−) cells and EB virus persistent infection cells was determined on the basis of the cytotoxicity of each drug. That is, cells (143B/EB virus-TK, 143B/hu-TK and 143B TK(−) cells: 5×10^4 cells/100 μl; EB virus persistent infection cells: 20×10^4 cells/100 μl) were added to 96-well flat-bottom culture plates containing 100 μl of various concentrations of each drug. After 5 days of culture, the number of surviving cells was determined by MTT [3-(4,5-dimethylthiazol-2-yl)-2,5-diphenyltetrazolium bromide] assay. The cytotoxicity of the test drugs is expressed in terms of a concentration (CC50) at which the cell viability was decreased to 50%.

143B/hu-TK cells = experiment: MTT cytotoxicity assay, cell having human-TK gene introduced; format: cell-based
Source text: as §1, §2, §3

[1] = as above; format: cell-based; conditions: human
Source text: as §1, §2, §3

B95a cells = experiment: MTT cytotoxic effect on EB virus infection cancer cells (B95a); format: cell-based; conditions: expression of TK +, MTT assay
Procedure: as §3
(§4) The cytotoxic effect of the medicinal agent of the present invention on EB virus infection cancer cells such as NC37 cells was investigated by MTT assay. […] However, neither of them was effective in cells in which EB virus-TK gene had not been expressed.

NC37 cells = experiment: MTT cytotoxic effect on EB virus infection cancer cells (NC37); format: cell-based; conditions: NC37, expression of TK +, MTT assay
Procedure: as §3, §4

Raji cells = experiment: MTT cytotoxic effect on EB virus infection cancer cells (Raji); format: cell-based; conditions: expression of TK −, MTT assay
Procedure: as §3, §4

Namalwa cells = experiment: MTT cytotoxic effect on EB virus infection cancer cells (Namalwa); format: cell-based; conditions: expression of TK −, MTT assay
Procedure: as §3, §4

HS-Sultan cells = experiment: MTT cytotoxic effect on EB virus infection cancer cells (HS-Sultan); format: cell-based; conditions: expression of TK −, MTT assay
Procedure: as §3, §4

KAI3 cells = experiment: MTT assay on cells with a chronic active EB virus infectious disease; format: cell-based
Procedure: as §3
A chronic active EB virus infectious disease is an unfavorable infectious disease caused by infection of not B cells but natural killer T cells (NKT cells) with an EB virus. As such a chronic infection cell strain, KAI3 cells (Clin. Exp. Immunol. 1999 March; 115(3): 385-92) were purchased from Health Science Research Resources Bank, and the effect of the medicinal agent of the present invention on them was investigated by MTT assay. GCV was used as a control agent.

EB virus = experiment: Acute infection of B lymphocytes with EB virus, EB virus DNA by real-time PCR; format: cell-based; conditions: B lymphocytes of a healthy person, cultured 2 weeks, PBMC#1287 and PBMC#5926, FIG. 2
Procedure: B lymphocytes were separated from the blood of a healthy person. The B lymphocytes were infected with an EB virus in the presence of the medicinal agent of the present invention and cultured for 2 weeks. Thereafter, the infected B cells were recovered and then washed, followed by extraction of DNA. The amount of EB virus DNA in the B lymphocytes was determined by real-time PCR and taken as a virus copy number.

[2] = MTT assay, 5 days of culture, read-out: CC50 143B/hu-TK

1-(2-deoxy-2-fluoro-4-thio-β-D-arabinofuranosyl)cytosine [4′-S-FMAC]
CC50 (143B/EB virus-TK cells; MTT assay, 5 days of culture): 0.066 µM | CC50 (143B/hu-TK cells; [2]): 0.04 µM

Cc1cn([C@@H]2S[C@H](CO)[C@@H](O)[C@@H]2F)c(=O)[nH]c1=O [Medicinal agent of the invention, 1-(2-deoxy-2-fluoro-4-thio-β-D-arabinofuranosyl)-5-methyluracil]
CC50 (143B/EB virus-TK cells; Homo sapiens, 143B, 120 h): 0.11 µM | CC50 at 5 days [1]: > 300 µM | Cytotoxic effect on EB virus infection cancer cells (B95a cells): 2.2 µM | Cytotoxic effect on EB virus infection cancer cells (NC37 cells): 2.1 µM | Cytotoxic effect on EB virus infection cancer cells (Raji cells): 22 µM | Cytotoxic effect on EB virus infection cancer cells (Namalwa cells): >100 µM | Cytotoxic effect on EB virus infection cancer cells (HS-Sultan cells): >100 µM | Effect on cells with a chronic active EB virus infectious disease (KAI3 cells): 4.7 µM | Amount of EB virus DNA in the B lymphocytes (virus copy number) (EB virus): reduces the amount of EB virus DNA in the B lymphocytes and inhibits new infection

Nc1nc(O)c2ncn(COC(CO)CO)c2n1 [GCV, ganciclovir]
CC50 (143B/EB virus-TK cells; Homo sapiens, 143B, 120 h): > 100 µM | CC50 at 5 days [1]: > 100 µM | Cytotoxic effect on EB virus infection cancer cells (B95a cells): 36 µM | Cytotoxic effect on EB virus infection cancer cells (NC37 cells): 27 µM | Cytotoxic effect on EB virus infection cancer cells (Raji cells): 55 µM | Cytotoxic effect on EB virus infection cancer cells (Namalwa cells): >100 µM | Cytotoxic effect on EB virus infection cancer cells (HS-Sultan cells): >100 µM | Effect on cells with a chronic active EB virus infectious disease (KAI3 cells): 105 µM

O=c1[nH]c(=O)n([C@@H]2O[C@H](CO)[C@@H](O)[C@@H]2O)cc1C=CBr [BvaraU, 1-β-D-arabinofuranosyl-5-bromovinyluracil]
CC50 (143B/EB virus-TK cells; Homo sapiens, 143B, 120 h): > 200 µM | CC50 at 5 days [1]: > 200 µM

Cc1cn(C2(C#N)C[C@H](O)[C@@H](CO)O2)c(=O)[nH]c1=O (stereo partly shown) [1′-CN-dT, 1-(C-cyano-2-deoxy-ribofuranosyl)thymine]
CC50 (143B/EB virus-TK cells; MTT assay, 5 days of culture): > 100 µM | CC50 (143B/hu-TK cells): > 100 µM

Nc1nc2c(ncn2COCCO)c(=O)[nH]1 [ACV, acyclovir]
CC50 at 5 days [1]: > 100 µM

O=c1[nH]c(=O)n([C@H]2C[C@H](O)[C@@H](CO)O2)cc1C=CBr [BVDU, 5-bromovinyl-2′-deoxyuridine]
CC50 (143B/EB virus-TK cells; Homo sapiens, 143B, 120 h): 122 µM | CC50 at 5 days [1, 2]: > 300 µM

O=c1[nH]c(=O)n([C@H]2C[C@H](O)[C@@H](CO)O2)cc1F [5FdU, 5-fluoro-2′-deoxyuridine]
CC50 (143B/EB virus-TK cells; Homo sapiens, 143B, 120 h): 0.4 µM | CC50 at 5 days [1]: 0.27 µM
